Test [1] relates to SAM-VI WT (B. angulatum 59 metK, U1A loop, crystallization/ITC construct) (RNA, riboswitch) GGCAUUGUGCCUCGCAUUGCACUCCGCGGGGCGAUAAGUCCUGAAAAGGGAUGUC
The test is described as follows: ITC. The conditions noted are these: K+ 50 mM, Mg2+ 10 mM; 40 mM HEPES pH 7.0, 20 °C.

Test [2] has as its system SAM-VI U6C (RNA, riboswitch) GGCAUCGUGCCUCGCAUUGCACUCCGCGGGGCGAUAAGUCCUGAAAAGGGAUGUC
The test is described as follows: ITC. The conditions noted are these: K+ 50 mM, Mg2+ 10 mM; 40 mM HEPES pH 7.0, 20 °C.

Test [3] relates to SAM-VI G7C (RNA, riboswitch) GGCAUUCUGCCUCGCAUUGCACUCCGCGGGGCGAUAAGUCCUGAAAAGGGAUGUC
The experiment in a line: ITC. Particulars: K+ 50 mM, Mg2+ 10 mM; 40 mM HEPES pH 7.0, 20 °C; N.D.; 0.5-1 mM ligand in syringe.

The subject of test [4] is SAM-VI U8C (RNA, riboswitch) GGCAUUGCGCCUCGCAUUGCACUCCGCGGGGCGAUAAGUCCUGAAAAGGGAUGUC
The test is described as follows: ITC. Particulars: K+ 50 mM, Mg2+ 10 mM; 40 mM HEPES pH 7.0, 20 °C; N.D.; 0.5-1 mM ligand in syringe.

The test system of test [5] is SAM-VI U8G (RNA, riboswitch) GGCAUUGGGCCUCGCAUUGCACUCCGCGGGGCGAUAAGUCCUGAAAAGGGAUGUC
The experiment in a line: ITC. Particulars: K+ 50 mM, Mg2+ 10 mM; 40 mM HEPES pH 7.0, 20 °C; N.D.; 0.5-1 mM ligand in syringe.

The test system of test [6] is SAM-VI U8A (RNA, riboswitch) GGCAUUGAGCCUCGCAUUGCACUCCGCGGGGCGAUAAGUCCUGAAAAGGGAUGUC
The test is described as follows: ITC. The conditions noted are these: K+ 50 mM, Mg2+ 10 mM; 40 mM HEPES pH 7.0, 20 °C; N.D.; 0.5-1 mM ligand in syringe.

Test [7] has as its system SAM-VI G33A (RNA, riboswitch) GGCAUUGUGCCUCGCAUUGCACUCCGCGGGGCAAUAAGUCCUGAAAAGGGAUGUC
The experiment in a line: ITC. The conditions noted are these: K+ 50 mM, Mg2+ 10 mM; 40 mM HEPES pH 7.0, 20 °C; N.D.; 0.5-1 mM ligand in syringe.

For test [8], the system named is SAM-VI A34C (RNA, riboswitch) GGCAUUGUGCCUCGCAUUGCACUCCGCGGGGCGCUAAGUCCUGAAAAGGGAUGUC
The experiment in a line: ITC. Particulars: K+ 50 mM, Mg2+ 10 mM; 40 mM HEPES pH 7.0, 20 °C; N.D.; 0.5-1 mM ligand in syringe.

The subject of test [9] is SAM-VI A34G (RNA, riboswitch) GGCAUUGUGCCUCGCAUUGCACUCCGCGGGGCGGUAAGUCCUGAAAAGGGAUGUC
The test is described as follows: ITC. The conditions noted are these: K+ 50 mM, Mg2+ 10 mM; 40 mM HEPES pH 7.0, 20 °C; N.D.; 0.5-1 mM ligand in syringe.

Test [10] relates to SAM-VI A36C (RNA, riboswitch) GGCAUUGUGCCUCGCAUUGCACUCCGCGGGGCGAUCAGUCCUGAAAAGGGAUGUC
The test is described as follows: ITC. The conditions noted are these: K+ 50 mM, Mg2+ 10 mM; 40 mM HEPES pH 7.0, 20 °C; N.D.; 0.5-1 mM ligand in syringe.

The subject of test [11] is SAM-VI A37C (RNA, riboswitch) GGCAUUGUGCCUCGCAUUGCACUCCGCGGGGCGAUACGUCCUGAAAAGGGAUGUC
The experiment in a line: ITC. Particulars: K+ 50 mM, Mg2+ 10 mM; 40 mM HEPES pH 7.0, 20 °C; N.D.; 0.5-1 mM ligand in syringe.

Test [12] deals with SAM-VI G38C (RNA, riboswitch) GGCAUUGUGCCUCGCAUUGCACUCCGCGGGGCGAUAACUCCUGAAAAGGGAUGUC
The test is described as follows: ITC. Particulars: K+ 50 mM, Mg2+ 10 mM; 40 mM HEPES pH 7.0, 20 °C; N.D.; 0.5-1 mM ligand in syringe.

The subject of test [13] is SAM-VI A36G/A37G/G38A (RNA, riboswitch) GGCAUUGUGCCUCGCAUUGCACUCCGCGGGGCGAUGGAUCCUGAAAAGGGAUGUC
The experiment in a line: ITC. Particulars: K+ 50 mM, Mg2+ 10 mM; 40 mM HEPES pH 7.0, 20 °C; N.D.; 0.5-1 mM ligand in syringe.

Test [14] has as its system metK 61 (U39Ap) (RNA, riboswitch, 2-aminopurine at U39 (paper numbering)) GCAAACGAAAACGUAUCAUUGUGCCUCGCUGGGGAGCGGGGCGAUAAGUCCGAAAGAGGGA
The test is described as follows: 2-aminopurine fluorescence. The conditions noted are these: K+ 100 mM, Mg2+ 2 mM; 50 mM KMOPS pH 7.5, 20 °C; 0.5 µM RNA, 15 µM SAM; no fluorescence change.

Test [15] relates to metK 65 (U39Ap) (RNA, riboswitch, 2-aminopurine at U39 (paper numbering)) GCAAACGAAAACGUAUCAUUGUGCCUCGCUGGGGAGCGGGGCGAUAAGUCCGAAAGAGGGAUGAU
The test is described as follows: 2-aminopurine fluorescence. Particulars: K+ 100 mM, Mg2+ 2 mM; 50 mM KMOPS pH 7.5, 20 °C; 0.5 µM RNA, 15 µM SAM; >3-fold fluorescence increase.

For test [16], the system named is wt U39Ap SAM-VI (GAAA tetraloop) (RNA, riboswitch, 2-aminopurine at U39 (paper numbering)) GGCAUUGUGCCUCGAAAGGGGCGAUAAGUCCUGAAAAGGGAUGUC
The experiment in a line: 2-aminopurine fluorescence titration. Particulars: K+ 100 mM, Mg2+ 2 mM; 50 mM KMOPS pH 7.5, 20 °C; apparent.

The test system of test [17] is U6C U39Ap SAM-VI (RNA, riboswitch, 2-aminopurine at U39 (paper numbering)) GGCAUCGUGCCUCGAAAGGGGCGAUAAGUCCUGAAAAGGGAUGUC
The experiment in a line: 2-aminopurine fluorescence titration. The conditions noted are these: K+ 100 mM, Mg2+ 2 mM; 50 mM KMOPS pH 7.5, 20 °C; apparent.

Test [18] relates to wt U39Ap SAM-VI (GAAA tetraloop) (RNA, riboswitch, 2-aminopurine at U39 (paper numbering)) GGCAUUGUGCCUCGAAAGGGGCGAUAAGUCCUGAAAAGGGAUGUC
The test is described as follows: stopped-flow 2-aminopurine fluorescence. Particulars: K+ 100 mM, Mg2+ 2 mM; 50 mM KMOPS pH 7.5, 20 °C; association rate constant.

The test system of test [19] is U6C U39Ap SAM-VI (RNA, riboswitch, 2-aminopurine at U39 (paper numbering)) GGCAUCGUGCCUCGAAAGGGGCGAUAAGUCCUGAAAAGGGAUGUC
The experiment in a line: stopped-flow 2-aminopurine fluorescence. The conditions noted are these: K+ 100 mM, Mg2+ 2 mM; 50 mM KMOPS pH 7.5, 20 °C; association rate constant.

The structures appear in SMILES notation.

Broadly, the kon is the second-order rate constant of association. For the compound `C[S+](CC[C@H](N)C(=O)O)C[C@H]1O[C@@H](n2cnc3c(N)ncnc32)[C@H](O)[C@@H]1O` (stereo partly drawn), the Kd in [1] is 0.33 ± 0.06 µM; in test [2], 0.46 ± 0.02 µM; in test [16] it was 2.04 ± 0.11 µM; in test [17], 2.31 ± 0.06 µM. The binding result in test [3], in test [4], in test [5], in test [6], in [7] and in test [8] was “no” in each case. For the same compound, the binding entry in test [9], in test [10], in [11], in test [12], in [13] and in test [14] was “no” in each case. For the same compound, in test [15], the binding entry is “yes”. Further, the figures for the kon in [18] and in [19] were 24,580 ± 689 M^-1 s^-1 and 62,550 ± 1900 M^-1 s^-1, respectively.

On to `Nc1ncnc2c1ncn2[C@@H]1O[C@H](CN(CCO)CC[C@H](N)C(=O)O)[C@@H](O)[C@H]1O`, for which the Kd in test [1] was determined as 4.4 ± 0.5 µM; in test [2], 1.7 ± 0.3 µM. The kon in test [18] is 17,240 ± 1140 M^-1 s^-1; in test [19], 4230 ± 462 M⁻¹ s⁻¹.

As to `Nc1ncnc2c1ncn2[C@@H]1O[C@H](CSCC[C@H](N)C(=O)O)[C@@H](O)[C@H]1O`, the Kd is 10.9 ± 1.3 µM in test [1] and 2.3 ± 0.1 µM in test [2]. In addition, the kon in [18] came out at 5500 ± 266 M⁻¹ s⁻¹; in [19] it was 1460 ± 179 M⁻¹ s⁻¹.

Values taken from publication PMC6914780 (2019).
